The source of these data is patent US20260317314A1, “NITROGEN-CONTAINING HETEROCYCLIC COMPOUND AND USE THEREOF” (JIANGSU DEYUAN PHARMACEUTICAL CO.,LTD., priority 2023, published 2026).

A short description of data set [1]: Permeability test in MDR1-MDCKII monolayer cell model. In kind it is in vitro ADME. As to conditions: dog. In short, it runs like this:
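Bidirectional transport of 2 μM compound across 4–7-day MDR1-MDCKII monolayers in HBSS with 10 mM HEPES pH 7.40, DMSO below 1%, 2.5 h at 37 °C. Quantified by LC-MS/MS. Papp calculated from receiver accumulation; efflux ratio = Papp(B-A)/Papp(A-B).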

Data set [2] deals with T1, human CYP11B1 (Homo sapiens, UniProt P15538).
T1 construct: expressed in transfected cells; host or cells: human renal leiomyoma G402 cell line (monoclonal cells overexpressing human CYP11B1)
T1 sequence (P15538 25-503): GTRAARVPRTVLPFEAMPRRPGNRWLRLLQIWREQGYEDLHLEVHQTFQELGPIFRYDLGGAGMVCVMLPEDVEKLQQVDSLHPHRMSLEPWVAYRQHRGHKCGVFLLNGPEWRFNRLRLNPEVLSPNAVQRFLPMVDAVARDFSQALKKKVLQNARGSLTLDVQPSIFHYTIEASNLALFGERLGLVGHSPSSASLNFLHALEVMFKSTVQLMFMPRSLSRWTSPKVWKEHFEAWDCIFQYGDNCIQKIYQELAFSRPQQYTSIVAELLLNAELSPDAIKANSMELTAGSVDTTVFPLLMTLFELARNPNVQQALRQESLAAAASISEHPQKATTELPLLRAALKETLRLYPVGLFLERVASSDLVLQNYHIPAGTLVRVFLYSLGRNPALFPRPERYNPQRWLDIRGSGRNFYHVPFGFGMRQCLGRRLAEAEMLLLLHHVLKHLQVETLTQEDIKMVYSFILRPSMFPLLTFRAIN
Nature of the data set: In vitro activity assay of monoclonal cells overexpressing human CYP11B1. It counts as cell-based. The note with it: G402 cells overexpressing human CYP11B1; substrate 11-deoxycortisol 1 μM; 16 hours. How it is done:
The human renal leiomyoma G402 cell line overexpressing human CYP11B1 was selected to serve as a compound selectivity screening system. Details are as follows: • 1) The cells, reagents, and instrument information were consistent with Experimental Example 1 (activity of monoclonal cells overexpressing human CYP11B2). • 2) Compound details: The test compound was prepared as a […] working concentration using DMSO. • 3) Experimental procedure
Day 1: Cells were digested, and human renal leiomyoma G402 cells overexpressing CYP11B1 were resuspended to 1×10^5 cells/mL, with […] seeded into a 96-well plate.
Day 2: The medium was replaced with DMEM/F12 containing 2.5% charcoal-stripped fetal bovine serum.
After one hour, the substrate was added: 30 mM 11-deoxycortisol was diluted 1500-fold with culture medium, and 5 μL was dispensed per well to achieve a final concentration of 1 μM, followed by incubation for 16 hours.
Day 3: The cell supernatant was collected and added to 200 μL of a methanol solution containing internal standards (internal standards: 35 ng/mL ketoprofen or 7.5 ng/mL carbamazepine or 5 ng/mL diphenhydramine or 10 ng/mL tolbutamide). […] The mixture was centrifuged (4000 g, 4° C., 15 min), and the supernatant was analyzed by ESI-LCMS/MS. • 4) Data analysis: […]
The IC50 of the test compound was determined by fitting to a nonlinear regression equation using XLfit 5.5.0.

Data set [3] can be described thus: In vivo pharmacokinetic study in cynomolgus monkeys. The arrangement: species or system cynomolgus monkey. As to conditions: cynomolgus monkey, plasma, male cynomolgus monkeys, oral 1 mg/kg.
Data set [4] has as its target T2, CYP2C19 (Homo sapiens, UniProt P33261).
T2 construct: Mixed human liver microsomes (HLM) were purchased from Corning Inc; tissue Corning Inc; host or cells: mixed human liver microsomes (HLM)
Nature of the data set: Human liver microsome CYP inhibition assay, CYP2C19. It counts as in vitro ADME. The note with it: role: inhibitor; human liver microsomes, probe substrate; read-out: CYP2C19 half maximal inhibitory concentration IC50. How it is done: Experimental objective: To evaluate the inhibitory activity of the test substance on human liver microsomal cytochrome P450 isoenzymes (CYP1A2, CYP2C9, CYP2C19, CYP2D6, CYP3A4) using a 5-in-1 probe substrate for CYP isoenzymes.
Mixed human liver microsomes (HLM) were purchased from Corning Inc. (Steuben, New York, USA) and stored at temperatures below −70° C. prior to use.
The working solution of the test substance, which had been diluted to a series of concentrations, was added to an incubation system containing human liver microsomes, probe substrates, and auxiliary factors of the circulatory system. A control containing solvent but no test substance served as an enzyme activity control (100%). The concentration of metabolites produced from probe substrates in the samples was determined using Liquid Chromatography-Tandem Mass Spectrometry (LC-MS/MS) method. Non-linear regression analysis of the average percentage activity of the test substance against its concentration was conducted using SigmaPlot (V.11). The IC50 values were calculated using a three-parameter or four-parameter inverse log equation.

The nature of data set [5]: Plasma protein binding rate test, cynomolgus monkey (equilibrium dialysis). In kind it is in vitro ADME. As to conditions: 37° C., read-out: Plasma protein binding rate (%) in cynomolgus monkeys (converted). The text has this:
The sample was thoroughly mixed.

T2 sequence (P33261 whole entry): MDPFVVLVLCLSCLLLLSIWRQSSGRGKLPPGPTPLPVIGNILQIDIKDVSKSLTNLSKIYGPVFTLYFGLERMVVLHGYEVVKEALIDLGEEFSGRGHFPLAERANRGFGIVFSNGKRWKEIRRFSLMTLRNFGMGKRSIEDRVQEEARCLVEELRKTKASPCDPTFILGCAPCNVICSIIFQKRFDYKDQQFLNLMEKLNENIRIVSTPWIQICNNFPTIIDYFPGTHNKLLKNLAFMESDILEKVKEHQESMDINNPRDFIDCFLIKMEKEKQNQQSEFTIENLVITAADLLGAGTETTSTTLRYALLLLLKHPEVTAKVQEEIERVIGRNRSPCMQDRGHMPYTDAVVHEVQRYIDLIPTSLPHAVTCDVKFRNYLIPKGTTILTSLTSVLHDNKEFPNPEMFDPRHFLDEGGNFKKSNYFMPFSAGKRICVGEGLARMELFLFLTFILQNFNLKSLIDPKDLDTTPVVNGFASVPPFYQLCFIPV

Take `CCC(=O)N[C@H]1CCOc2c(-c3ccc4c(c3)CCC(=O)N4C)cncc21` (single isomer, unassigned) [Compound 037]: the efflux ratio at 2.5 h, 2 µM in data set [1] (MDCK-MDR1, pH 7.4, ER=Papp(BA)/Papp(AB)) was determined as 1.88. Moreover, the Papp A→B at 2.5 h, 2 µM in data set [1] (MDCK-MDR1, pH 7.4, pH 7.40, 2.5 hours, 37±1° C., read-out: Apparent permeability coefficient (Papp (AB))) turned out to be 10.7 ×10⁻⁶ cm/s. For the same compound, the IC50 in data set [2] came out at 3.47 µM. Besides, in data set [3], the bioavailability came to 67%, the half-life was 5.75 h and the Cmax turned out to be 1320 nM. Besides, the AUC(0-t) at 24 h in data set [3] (read-out: AUC0-24 h) worked out at 10 µM·h. In addition, the IC50 in data set [4] was more than 50 µM. Moreover, the fraction unbound at 4 h in data set [5] was 0.451.
